For assay [1], the target named is T1, EGFR L858R/T790M (H1975-clone #36, homozygous) (Homo sapiens, UniProt P00533, L858R/T790M).
T1 construct: designed to specifically target WT EGFR but preserve the L858R/T790M copy; host or cells: H1975-clone #36
Description: EGFR degradation HTRF assay, H1975-clone #36 cells. The format is cell-based. The following applies: H1975 #36, 16h treatment; for Dmax: NCI-H1975, maximum percentage of degradation. Here is the method:
H1975-clone #36(L858R/T790M). H1975 cell heterozygously (from ATCC) contains alleles of WT and L858R/T790M EGFR. H1975-clone #36(L858R/T790M) was generated by gene knockout, in which the EGFR targeting sgRNA was designed to specifically target WT EGFR but preserve the L858R/T790M copy. Followed by the gene knockout, the edited H1975 cells were seeded in 96 well plates at the concentration of 1 cell/well, cultured for about 2 weeks to allow single clones formation. The formed clones were screened by DNA sequencing for the desired edition. H1975-clone #36 was confirmed as a homozygous L858R/T790M EGFR clone.
BaF3 WT(wild type), BaF3-LTC(L858R/T790M/C797S) and BaF3-DTC(Del19/T790M/C797S) cells are treated with compounds diluted in 0.2% DMSO cell culture medium and incubate for 16h, 37° C., 5% CO2, H1975-#36, H1975-#28, H1975-#23 and HCC827 cells are treated with compounds diluted in 0.2% DMSO cell culture medium on day 2, incubate for 16h, 37° C., 5% CO2.the final concentriation of compounds in all assay is start with 10 uM, 5-fold dilution, total 8 doses were included.
After 16h treatment, add HTRF lysis buffer to each well; seal the plate and incubate 1 hour at room temperature on a plate shaker; Once the cells are lysed, 16 μL of cell lysate are transferred to a PE 384-well HTRF detection plate; 4 μL of pre-mixed HTRF antibodies are added to each well; Cover the plate with a plate sealer, spin 1000 rpm for 1 min, Incubate overnight at room temperature; Read on BMG PheraStar with HTRF protocol (337 nm-665 nm-620 nm).
The inhibition (degradation) percentage of the compound was calculated by the following equation: Inhibition percentage of Compound=100-100×(Signal-low control)/(High control-low control), wherein signal=each test compound group
High control=Cell group with added DMSO and without compound, indicating microplate readings without EGFR degradation;
Dmax is the maximum percentage of inhibition (degradation).
The IC50 (DC50) value of a compound can be obtained by fitting the following equation
Y=Bottom+(TOP−Bottom)/(1+((IC50/X)^hillslope))
Wherein, X and Y are known values, and IC50, Hillslope, Top and Bottom are the parameters obtained by fitting with software. Y is the inhibition percentage (calculated from the equation), X is the concentration of the compound; IC50 is the concentration of the compound when the 50% inhibition is reached. The smaller the IC50 value is, the stronger the inhibitory ability of the compound is. Vice versa, the higher the IC50 value is, the weaker the inhibitory ability of the compound is; Hillslope represents the slope of the fitted curve, generally around 1*; Bottom represents the minimum value of the curve obtained by data fitting, which is generally 0%±20%; Top represents the maximum value of the curve obtained by data fitting, which is generally 100%±20%. The experimental data were fitted by calculating and analyzing with Dotmatics data analysis software.
In general terms: TR-FRET usually uses a lanthanide donor and a delayed reading to cut background.

Another assay addresses T2, EGFR (HCC827 cells) (Homo sapiens, UniProt P00533, DEL746-750).
T2 construct: endogenous in cells; host or cells: HCC827
Description: EGFR degradation HTRF assay, HCC827 cells. The class given is cell-based. The following applies: HCC827, 16h treatment; for Dmax: maximum percentage of degradation. In a few lines: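 EGFR remaining after a 16 h, 37 °C exposure (8 doses, 5-fold steps from 10 uM final, 0.2% DMSO) was quantified by HTRF antibodies in cell lysate. Percent inhibition relative to DMSO control was fitted by four-parameter logistic to give DC50; Dmax denotes maximal degradation.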

In US20230265116A1, “DEGRADATION OF (EGFR) BY CONJUGATION OF EGFR INHIBITORS WITH E3 LIGASE LIGAND AND METHODS OF USE” (BEIGENE, LTD., priority 2020, published 2023) one finds DC50 and Dmax data, which are given here for twelve compounds.

T1 sequence (P00533 25-1210 T790M/L858R): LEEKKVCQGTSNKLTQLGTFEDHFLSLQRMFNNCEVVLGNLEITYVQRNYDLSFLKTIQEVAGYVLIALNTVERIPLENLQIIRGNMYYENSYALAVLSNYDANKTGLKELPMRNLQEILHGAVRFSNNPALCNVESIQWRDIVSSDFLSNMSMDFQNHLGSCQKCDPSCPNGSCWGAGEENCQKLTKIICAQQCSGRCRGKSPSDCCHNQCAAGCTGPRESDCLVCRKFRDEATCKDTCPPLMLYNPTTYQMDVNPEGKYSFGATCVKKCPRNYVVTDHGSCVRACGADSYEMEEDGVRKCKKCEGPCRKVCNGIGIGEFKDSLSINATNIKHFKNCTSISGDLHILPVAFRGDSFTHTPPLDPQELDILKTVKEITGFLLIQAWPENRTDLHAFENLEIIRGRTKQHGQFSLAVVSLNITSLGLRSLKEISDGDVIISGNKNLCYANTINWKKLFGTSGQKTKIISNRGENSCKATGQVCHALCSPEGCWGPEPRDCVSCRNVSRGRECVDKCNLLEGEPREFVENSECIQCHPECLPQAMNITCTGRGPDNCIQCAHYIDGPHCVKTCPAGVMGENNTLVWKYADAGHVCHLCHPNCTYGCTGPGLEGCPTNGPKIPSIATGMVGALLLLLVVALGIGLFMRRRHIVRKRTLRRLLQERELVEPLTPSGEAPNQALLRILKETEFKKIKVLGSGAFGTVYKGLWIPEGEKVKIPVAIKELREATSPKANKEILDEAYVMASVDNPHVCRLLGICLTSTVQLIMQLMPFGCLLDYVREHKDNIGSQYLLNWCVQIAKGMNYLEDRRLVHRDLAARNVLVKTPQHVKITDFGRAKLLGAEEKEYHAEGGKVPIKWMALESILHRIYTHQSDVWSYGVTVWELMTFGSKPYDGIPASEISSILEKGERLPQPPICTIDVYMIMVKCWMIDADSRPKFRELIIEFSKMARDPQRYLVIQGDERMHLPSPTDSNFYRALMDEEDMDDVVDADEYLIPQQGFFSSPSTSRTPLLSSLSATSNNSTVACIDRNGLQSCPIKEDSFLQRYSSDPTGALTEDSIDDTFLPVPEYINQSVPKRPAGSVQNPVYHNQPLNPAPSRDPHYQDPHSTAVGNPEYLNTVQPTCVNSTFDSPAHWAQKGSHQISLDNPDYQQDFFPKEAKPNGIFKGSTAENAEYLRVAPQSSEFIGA
T2 sequence (P00533 with tags, fused parts or gaps DEL746-750): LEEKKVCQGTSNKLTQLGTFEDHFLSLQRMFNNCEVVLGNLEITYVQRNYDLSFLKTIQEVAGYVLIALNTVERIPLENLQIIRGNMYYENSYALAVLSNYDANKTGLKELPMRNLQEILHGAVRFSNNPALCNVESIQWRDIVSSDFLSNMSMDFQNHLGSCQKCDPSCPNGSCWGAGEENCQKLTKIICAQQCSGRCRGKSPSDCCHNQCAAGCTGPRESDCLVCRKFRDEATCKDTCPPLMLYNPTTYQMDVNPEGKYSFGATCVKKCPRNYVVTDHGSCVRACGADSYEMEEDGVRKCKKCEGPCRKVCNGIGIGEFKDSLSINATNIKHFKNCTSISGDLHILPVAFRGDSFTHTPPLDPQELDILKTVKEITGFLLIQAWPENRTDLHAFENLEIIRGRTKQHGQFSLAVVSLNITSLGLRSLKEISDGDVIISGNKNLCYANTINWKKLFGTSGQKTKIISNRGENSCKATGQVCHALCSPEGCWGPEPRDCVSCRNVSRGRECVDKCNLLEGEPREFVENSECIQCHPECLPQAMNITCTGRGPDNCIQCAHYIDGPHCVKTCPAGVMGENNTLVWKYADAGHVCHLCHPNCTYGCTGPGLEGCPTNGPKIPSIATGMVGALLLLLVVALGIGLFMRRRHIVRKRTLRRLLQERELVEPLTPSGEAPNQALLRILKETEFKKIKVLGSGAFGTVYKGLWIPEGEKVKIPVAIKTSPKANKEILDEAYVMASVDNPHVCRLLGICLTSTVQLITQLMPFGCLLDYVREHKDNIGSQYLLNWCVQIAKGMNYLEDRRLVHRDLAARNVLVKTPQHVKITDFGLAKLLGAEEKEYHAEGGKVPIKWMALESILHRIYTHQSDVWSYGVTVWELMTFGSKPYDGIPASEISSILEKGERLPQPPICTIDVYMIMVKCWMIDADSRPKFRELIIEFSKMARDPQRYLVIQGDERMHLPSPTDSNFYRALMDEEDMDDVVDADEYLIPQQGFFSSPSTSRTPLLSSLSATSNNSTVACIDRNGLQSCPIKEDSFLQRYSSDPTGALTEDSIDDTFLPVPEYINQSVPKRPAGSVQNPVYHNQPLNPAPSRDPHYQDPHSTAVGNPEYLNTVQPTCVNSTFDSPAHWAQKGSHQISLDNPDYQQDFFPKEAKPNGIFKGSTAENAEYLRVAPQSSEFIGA

A word on the DC50: it is the midpoint of the concentration-degradation curve. A high value points to a less potent degrader. The Dmax is the largest share of the target that was removed. A higher Dmax goes with a fuller loss of target. With `COc1cc(N2CCC(N(C)CC3CCN(c4ccc(C5CCC(=O)NC5=O)cc4)CC3)CC2)c(C)cc1Nc1ncc(Br)c(Nc2ccc3nccnc3c2P(C)(C)=O)n1` (stereo not drawn) [Example 77, 3-(4-(4-(((1-(4-((5-bromo-4-((5-(dimethylphosphoryl)quinoxalin-6-yl)amino)pyrimidin-2-yl)amino)-5-methoxy-2-methylphenyl)piperidin-4-yl)(methyl)amino)methyl)piperidin-1-yl)phenyl)piperidine-2,6-dione], in assay [1], the DC50 turned out to be 2.77 nM and the Dmax turned out to be 63%. At EGFR (HCC827 cells), this compound had a DC50 of 9.18 nM and a Dmax of 70.9%.

In assay [1], `COc1cc(N2CCC(N(C)CC3CCN(c4ccc(N5CCC(=O)NC5=O)cc4)CC3)CC2)c(C)cc1Nc1ncc(Br)c(Nc2ccc3nccnc3c2P(C)(C)=O)n1` [Example 79, 1-(4-(4-(((1-(4-((5-bromo-4-((5-(dimethylphosphoryl)quinoxalin-6-yl)amino)pyrimidin-2-yl)amino)-5-methoxy-2-methylphenyl)piperidin-4-yl)(methyl)amino)methyl)piperidin-1-yl)phenyl)dihydropyrimidine-2,4(1H,3H)-dione] returned a DC50 above 10000 nM and a Dmax of 18.6%. At EGFR (HCC827 cells), the half-maximal degradation concentration (DC50) is 17.5 nM and the greatest degradation seen (Dmax) came out at 72.1%.

On to `COc1cc(N2CCC(N(C)CC3CCN(c4ccc(N5CCC(=O)NC5=O)c(F)c4)CC3)CC2)c(C)cc1Nc1ncc(Br)c(Nc2ccc3nccnc3c2P(C)(C)=O)n1` [Example 81, 1-(4-(4-(((1-(4-((5-bromo-4-((5-(dimethylphosphoryl)quinoxalin-6-yl)amino)pyrimidin-2-yl)amino)-5-methoxy-2-methylphenyl)piperidin-4-yl)(methyl)amino)methyl)piperidin-1-yl)-2-fluorophenyl)dihydropyrimidine-2,4(1H,3H)-dione], for which the DC50 in assay [1] was above 10000 nM; on EGFR (HCC827 cells), 25.8 nM. Besides, the greatest degradation seen (Dmax) in assay [1] was 5.13%; on EGFR (HCC827 cells), 68.8%.

In the case of `COc1cc(N2CCC(N(C)CC3CCN(c4ccc(N5CCC(=O)NC5=O)cc4F)CC3)CC2)c(C)cc1Nc1ncc(Br)c(Nc2ccc3nccnc3c2P(C)(C)=O)n1` [Example 82, 1-(4-(4-(((1-(4-((5-bromo-4-((5-(dimethylphosphoryl)quinoxalin-6-yl)amino)pyrimidin-2-yl)amino)-5-methoxy-2-methylphenyl)piperidin-4-yl)(methyl)amino)methyl)piperidin-1-yl)-3-fluorophenyl)dihydropyrimidine-2,4(1H,3H)-dione], the DC50 was above 10000 nM in assay [1] and 14.7 nM at EGFR (HCC827 cells). The Dmax in assay [1] turned out to be 12.2%; at EGFR (HCC827 cells) it was 74%.

As for `COc1cc(N2CCC(N(C)CC3CCN(c4ccc(N5CCC(=O)NC5=O)c(C)c4)CC3)CC2)c(C)cc1Nc1ncc(Br)c(Nc2ccc3nccnc3c2P(C)(C)=O)n1` [Example 83, 1-(4-(4-(((1-(4-((5-bromo-4-((5-(dimethylphosphoryl)quinoxalin-6-yl)amino)pyrimidin-2-yl)amino)-5-methoxy-2-methylphenyl)piperidin-4-yl)(methyl)amino)methyl)piperidin-1-yl)-2-methylphenyl)dihydropyrimidine-2,4(1H,3H)-dione], in assay [1], the half-maximal degradation concentration (DC50) is above 10000 nM and the maximal degradation (Dmax) turned out to be 14.7%. At EGFR (HCC827 cells), this compound showed a DC50 of 20.3 nM and a Dmax of 74.2%.

For `COc1cc(N2CCC(N(C)CCCOc3ccc(N4CCC(=O)NC4=O)cc3)CC2)c(C)cc1Nc1ncc(Br)c(Nc2ccc3nccnc3c2P(C)(C)=O)n1` [Example 85, 1-(4-(3-((1-(4-((5-bromo-4-((5-(dimethylphosphoryl)quinoxalin-6-yl)amino)pyrimidin-2-yl)amino)-5-methoxy-2-methylphenyl)piperidin-4-yl)(methyl)amino)propoxy)phenyl)dihydropyrimidine-2,4(1H,3H)-dione], in assay [1], the 50% degradation concentration (DC50) is above 10000 nM and the Dmax amounted to 20.9%. Moreover, at EGFR (HCC827 cells), the DC50 turned out to be 73.3 nM and the maximal degradation (Dmax) came to 75%.

As to `COc1cc(N2CCN(CC3CCN(c4ccc(C5CCC(=O)NC5=O)cc4)CC3)CC2)c(C)cc1Nc1ncc(Br)c(Nc2ccc3nccnc3c2P(C)(C)=O)n1` (stereo not drawn) [Example 88, 3-(4-(4-((4-(4-((5-bromo-4-((5-(dimethylphosphoryl)quinoxalin-6-yl)amino)pyrimidin-2-yl)amino)-5-methoxy-2-methylphenyl)piperazin-1-yl)methyl)piperidin-1-yl)phenyl)piperidine-2,6-dione], the DC50 in assay [1] was 3.54 nM; at EGFR (HCC827 cells) it was 21.9 nM. Moreover, the results for the greatest degradation seen (Dmax) (in assay [1]; at EGFR (HCC827 cells)) were 54.5% and 68.7%, respectively.

Take `COc1cc(N2CCN(CC3CCN(c4ccc(C5CCC(=O)NC5=O)cc4)CC3)CC2)ccc1Nc1ncc(Br)c(Nc2ccc3nccnc3c2P(C)(C)=O)n1` (stereo not drawn) [Example 89, 3-(4-(4-((4-(4-((5-bromo-4-((5-(dimethylphosphoryl)quinoxalin-6-yl)amino)pyrimidin-2-yl)amino)-3-methoxyphenyl)piperazin-1-yl)methyl)piperidin-1-yl)phenyl)piperidine-2,6-dione]: in assay [1], half-maximal degradation (DC50) was put at 6.23 nM and the Dmax was 84.7%. Besides, at EGFR (HCC827 cells), the DC50 came out at 59.6 nM and the greatest degradation seen (Dmax) came to 91.8%.

As for `COc1cc(N2CCN(CCC3CCN(c4ccc(C5CCC(=O)NC5=O)cc4)CC3)CC2)c(C)cc1Nc1ncc(Br)c(Nc2ccc3nccnc3c2P(C)(C)=O)n1` (stereo not drawn) [Example 90, 3-(4-(4-(2-(4-(4-((5-bromo-4-((5-(dimethylphosphoryl)quinoxalin-6-yl)amino)pyrimidin-2-yl)amino)-5-methoxy-2-methylphenyl)piperazin-1-yl)ethyl)piperidin-1-yl)phenyl)piperidine-2,6-dione], in assay [1], the 50% degradation concentration (DC50) is 6.53 nM and the Dmax turned out to be 77.5%. At EGFR (HCC827 cells), this compound came in with a DC50 of 12.8 nM and a maximal degradation (Dmax) of 81.4%.

Consider `COc1cc(N2CCN(CC3CCN(c4ccc(N5CCC(=O)NC5=O)cc4)CC3)CC2)c(C)cc1Nc1ncc(Br)c(Nc2ccc3nccnc3c2P(C)(C)=O)n1` [Example 95, 1-(4-(4-((4-(4-((5-bromo-4-((5-(dimethylphosphoryl)quinoxalin-6-yl)amino)pyrimidin-2-yl)amino)-5-methoxy-2-methylphenyl)piperazin-1-yl)methyl)piperidin-1-yl)phenyl)dihydropyrimidine-2,4(1H,3H)-dione], for which the 50% degradation concentration (DC50) in assay [1] worked out at 9030 nM; at EGFR (HCC827 cells), 147 nM. For the same compound, the Dmax in assay [1] is 61.6%; at EGFR (HCC827 cells) it was 71.3%.

As for `COc1cc(N2CCN(CC3CCN(c4ccc(N5CCC(=O)NC5=O)c(F)c4)CC3)CC2)c(C)cc1Nc1ncc(Br)c(Nc2ccc3nccnc3c2P(C)(C)=O)n1` [Example 96, 1-(4-(4-((4-(4-((5-bromo-4-((5-(dimethylphosphoryl)quinoxalin-6-yl)amino)pyrimidin-2-yl)amino)-5-methoxy-2-methylphenyl)piperazin-1-yl)methyl)piperidin-1-yl)-2-fluorophenyl)dihydropyrimidine-2,4(1H,3H)-dione], in assay [1], the DC50 is above 10000 nM and the Dmax stood at 7.3%. On EGFR (HCC827 cells), this compound yielded a DC50 of 151 nM and a Dmax of 67%.

In the case of `COc1cc(N2CCN(CC3CCN(c4ccc(N5CCC(=O)NC5=O)cc4F)CC3)CC2)c(C)cc1Nc1ncc(Br)c(Nc2ccc3nccnc3c2P(C)(C)=O)n1` [Example 97, 1-(4-(4-((4-(4-((5-bromo-4-((5-(dimethylphosphoryl)quinoxalin-6-yl)amino)pyrimidin-2-yl)amino)-5-methoxy-2-methylphenyl)piperazin-1-yl)methyl)piperidin-1-yl)-3-fluorophenyl)dihydropyrimidine-2,4(1H,3H)-dione], in assay [1], the DC50 is above 10000 nM and the Dmax was determined as 11.2%. Also, at EGFR (HCC827 cells), the 50% degradation concentration (DC50) came to 118 nM and the Dmax was determined as 62.8%.
